The results in this text go back to patent publication US20230175022A1 (priority 2020, published 2023).

The subject of one data set is S. cerevisiae. The data set can be described thus: Growth of S. cerevisiae strains in overlay/underlay candidates (OD600). As to conditions: 20% (v/v) overlay/underlay; YP+2% (w/v) galactose. Type of data set: cell-based, Saccharomyces cerevisiae. Here is the method: To test non-toxic organic overlays/underlays, different non-production background and production strains of S. cerevisiae (Table 1) were inoculated from colonies on YPD agar plates and grown for approximately 24 hours in 96 well deepwell plates containing 300 μL YP+2% (w/v) glucose at 30° C. with 950 rpm shaking (3 mm throw) and maintained at 85% humidity. These cultures were then used to inoculate 96 well deepwell plates containing 300 μL YP+2% (w/v) galactose (YP gal) or glucose (YP glu), with or without addition of 0.04% (w/v) hexanoic acid (HA) plus 20% (v/v) (60 μL) of different overlays/underlays or no organic phase, under the same conditions described for precultures. At three different times (specified in plots), biological triplicate cultures were sampled and optical density at 600 nm (0D600) was measured as a proxy for biomass growth on a SpectraMax plate reader, with dilution in water to allow measurements to be within the linear range of instrumental readings. Averaged OD600s across at least three biological replicates of each strain/overlay condition at each sampling time. Multiple sets of measurements were performed on large groups of overlay and underlay candidates in different batches.
`CC(C)(C)OC(=O)CC(=O)OC(C)(C)C` [di-cert-butyl malonate, Di-tert-butyl malonate]: the “toxicity to growth (OD600), with galactose” value was “appearing toxic or to induce substantial lag”.

As for `CCOC(=O)C(CC)(CC)C(=O)OCC` [diethyl diethylmalonate], the “toxicity to growth (OD600), with galactose” value is “substantial lag”.

Staying with this data set, now noted: 20% (v/v) overlay/underlay; YP+2% (w/v) galactose or glucose; 96 well deepwell plates; production and non-production strains.
Turning to “2,2,4-trimethyl-1,3-pentanediol monoisobutyrate [Texanol]”, the “toxicity to growth (OD600 as proxy for biomass growth)” value is “inhibitory to growth”. The same measure, in the same setting: for `CCCCCCCCCCO` [Decanol] the value was “toxic to growth”. Still for that read-out and setting: the result for `CCCCOC(=O)CCCCCCCCC(=O)OCCCC` [Dibutyl sebacate] reads “completely non-inhibitory to growth”; that for `CCCCCCCCCCCCCC(=O)OC(C)C` [IPM, isopropyl myristate], “non-toxic”; that for `CCCCCCCC(=O)OC(C)C` [Isopropyl octanoate], “moderately inhibitory but allowed for some growth”. `CCCCCCCC(=O)OCC(COC(=O)CCCCCCC)OC(=O)CCCCCCC` [Tricaprylin]: the “toxicity to growth (OD600 as proxy for biomass growth)” value is “fairly toxic”.

With `CCCCCCCCCCCC(=O)OCCCC` [butyl laurate], the “toxicity to growth (OD600 as proxy for biomass growth)” value is “non-toxic”.

In the case of `CCCCOC(=O)CCCCC(=O)OCCCC` [dibutyl adipate], the “toxicity to growth (OD600 as proxy for biomass growth)” value was “no apparent toxicity”. On to `CCOC(=O)CCCCCCCCC(=O)OCC` [diethyl sebacate], for which the “toxicity to growth (OD600 as proxy for biomass growth)” value is “modest growth by most strains”. `CC(C)OC(=O)CCCCC(=O)OC(C)C` [diisopropyl adipate]: the “toxicity to growth (OD600 as proxy for biomass growth)” value is reported as “Some growth was observed”. Still for that read-out and setting: for `CCCCCCCCCCCC` [dodecane] the value was “Lack of toxicity”. For `CCCCCCCCCC(=O)OCC` [ethyl decanoate], the “toxicity to growth (OD600 as proxy for biomass growth)” value is “increasingly non-toxic”. Take `CCCCCCCCCCCC(=O)OCC` [ethyl laurate]: the “toxicity to growth (OD600 as proxy for biomass growth)” value is “non-toxic”. Still for that read-out and setting: for `CCCCCCCCCCCCCC(=O)OCC` [ethyl myristate] the value was “non-toxic”.

Take `CCCCCCCCCCCCCCCC` [hexadecane]: the “toxicity to growth (OD600 as proxy for biomass growth)” value was “Lack of toxicity”. Same read-out and setting: for `CCCCCCOC(=O)CCCCC` [hexyl hexanoate] the value was “moderately non-toxic”; for `CCCCCCCCCC(=O)OC` [methyl decanoate], “moderately inhibitory to growth but still allowed for growth”. `CCCCCCCCCCCCCC(=O)OC` [methyl myristate]: the “toxicity to growth (OD600 as proxy for biomass growth)” value was “non-toxic”. For `CCCCCCCCOC(C)=O` [octyl acetate], the “toxicity to growth (OD600 as proxy for biomass growth)” value is listed as “toxic”. Same read-out and setting: for `CCCCCCCC/C=C\CCCCCCCCO` [oleyl alcohol] the value was “supports robust growth”; for `CCCCCCCCCCCCCC` [tetradecane], “Lack of toxicity”.

The data set is the same for the next values; noted with them: 20% (v/v) overlay/underlay; YP+2% (w/v) glucose.
`CCCCCCCC(=O)OCC(COC(=O)CCCCCCC)OC(=O)CCCCCCC` [Tricaprylin]: the “toxicity to growth (OD600), with glucose” value is “allowed some growth of all strains”. Turning to `CC(C)(C)OC(=O)CC(=O)OC(C)(C)C` [di-cert-butyl malonate, Di-tert-butyl malonate], the “toxicity to growth (OD600), with glucose” value is “supported growth of all strains”. For `CCOC(=O)C(CC)(CC)C(=O)OCC` [diethyl diethylmalonate], the “toxicity to growth (OD600), with glucose” value is “modest growth by most strains”.

The subject of another data set is S. cerevisiae. The data set is described as above. It is filed as cell-based, Saccharomyces cerevisiae. The following applies: 1-10% (v/v), particularly 1-2.5% (v/v), in IPM and isopar M.
`CC(C)(C)OC(=O)CC(=O)OC(C)(C)C` [di-cert-butyl malonate, Di-tert-butyl malonate]: the “toxicity to growth of mixture in IPM or isopar M” value was “much lower toxicity”.

Tested on in a further data set: not listed separately
The data set can be described thus: Partitioning of olivetolic acid between organic overlay and aqueous culture phase (shake flask, HPLC). Type of data set: physicochemical. The following applies: IPM overlay; YP+2% galactose culture, not acidified. Here is the method: Precultures of LSC3-2 and LSC3-18 were inoculated from YPD streak plates and grown in 30 mL of YP+2% (w/v) glucose in baffled 250 mL shake flasks for approximately 18 hours overnight at 30° C. with 200 rpm shaking. Baffled 250 mL shake flasks containing 30 mL of YP+2% (w/v) galactose, 5 mL of IPM or diethyl sebacate, and 0.04% (w/v) hexanoic acid, were inoculated with 1 mL of preculture and grown for at 30° C. with 200 rpm shaking. After 24 and 48 hours, samples of cell culture broth plus overlay were sampled into microcentrifuge tubes and stored at −20° C. at least overnight. Sample tubes were thawed and aqueous sample and overlay sample were pipetted into plates for HPLC analysis. Overlay samples were diluted 1:1 v/v with methanol in the HPLC plate prior to analysis.
In the case of `CCCCCc1cc(O)cc(O)c1C(=O)O` [OA, olivetolic acid], the “partitioning between overlay and aqueous phase” value is “partitioned between the IPM and aqueous phases”.

Staying with this data set, now noted: diethyl sebacate overlay; YP+2% galactose culture, not acidified.
Take `CCCCCc1cc(O)cc(O)c1C(=O)O` [OA, olivetolic acid]: the “partitioning between overlay and aqueous phase” value is “entirely partitioned into diethyl sebacate”.

Tested on in the next data set: not listed separately
The data set can be described thus: Partitioning of divarinic acid and divarin into organic overlays (96 well deepwell plate, HPLC). It is filed as physicochemical. As to conditions: Delft medium+CSM+2% glucose, 48 hours. Here is the method: Several monoester and one diester overlay candidate were compared to IPM for production of divarinic acid and divarin. LSC3-13 precultures were inoculated from YPD streak plates and grown in 300 μL Delft medium+0.79 g/L complete supplement mixture (CSM) (ForMedium, Norfolk, UK)+2% (w/v) glucose in round-bottom square well 96 well deepwell plates for approximately 18 hours overnight at 30° C. with 950 rpm shaking in an Infors plate shaker. 96 well deepwell plate wells containing 300 μL of Delft medium+CSM+2% (w/v) glucose, 60 μL of different overlay solvents, and 0.08% (w/v) butyric acid, were inoculated with 10 μL of preculture and grown for 30° C. with 950 rpm shaking. After 48 hours, the aqueous layer and overlay were sampled on a Bravo automated liquid handling platform (Agilent) and samples from the aqueous and organic overlay phases were subjected to HPLC analysis to measure divarinic acid and divarin production.
As to `CCCc1cc(O)cc(O)c1` [divarin, 1,3-dihydroxy-5-propylbenzene], the “partitioning into monoester overlays compared with olivetolic acid and olivetol” value was “partition less effectively”.

With `CCCc1cc(O)cc(O)c1C(=O)O` [divarinic acid, 2,4-dihydroxy-6-propylbenzoic acid], the “partitioning into monoester overlays compared with olivetolic acid and olivetol” value is “partition less effectively”.
